# Measurements published in ChEMBL document CHEMBL1201862, “PubChem BioAssay data set” (2004).
#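 Exposure lasted 48 hours, with cells grown in 96-well plates and compounds tested at five concentrations. GI50 is the concentration that inhibits growth by half.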 Active and inactive are the calls of the source. Cut-off read from the data, not from the text of the source: active = GI50 up to about 1.1 µM and inactive = higher.
# Legend:
# Experiment in all cases: DTP human tumour cell line panel, 48 h
# 786-0 = test system: 786-0
# A549 = test system: A549
# ACHN = test system: ACHN
# COLO 205 = test system: COLO 205
# DLD-1 = test system: DLD-1
# HCT-116 = test system: HCT-116
# HOP-62 = test system: HOP-62
# HOP-92 = test system: HOP-92
# HT-29 = test system: HT-29
# IGROV-1 = test system: IGROV-1
# K562 = test system: K562
# KM-20L2 = test system: KM-20L2
# KM12 = test system: KM12
# LOX IMVI = test system: LOX IMVI
# LXFL 529 = test system: LXFL 529
# M14 = test system: M14
# M19-MEL = test system: M19-MEL
# MOLT-4 = test system: MOLT-4
# NCI-H226 = test system: NCI-H226
# NCI-H23 = test system: NCI-H23
# NCI-H460 = test system: NCI-H460
# NCI-H522 = test system: NCI-H522
# OVCAR-3 = test system: OVCAR-3
# OVCAR-4 = test system: OVCAR-4
# OVCAR-5 = test system: OVCAR-5
# OVCAR-8 = test system: OVCAR-8
# SF-268 = test system: SF-268
# SF-295 = test system: SF-295
# SF-539 = test system: SF-539
# SK-MEL-28 = test system: SK-MEL-28
# SK-OV-3 = test system: SK-OV-3
# SNB-19 = test system: SNB-19
# SNB-75 = test system: SNB-75
# SNB-78 = test system: SNB-78
# SW-620 = test system: SW-620
# TK-10 = test system: TK-10
# U-251 = test system: U-251
# UACC-257 = test system: UACC-257
# UACC-62 = test system: UACC-62
# UO-31 = test system: UO-31
# A498 = test system: A498
# BT-549 = test system: BT-549
# CAKI-1 = test system: CAKI-1
# CCRF-CEM = test system: CCRF-CEM
# DU-145 = test system: DU-145
# EKVX = test system: EKVX
# HCC 2998 = test system: HCC 2998
# HCT-15 = test system: HCT-15
# HL-60 = test system: HL-60
# Hs-578T = test system: Hs-578T
# MCF7 = test system: MCF7
# MDA-MB-231 = test system: MDA-MB-231
# MDA-MB-435 = test system: MDA-MB-435
# MDA-N = test system: MDA-N
# Malme-3M = test system: Malme-3M
# NCI/ADR-RES = test system: NCI/ADR-RES
# PC-3 = test system: PC-3
# RPMI-8226 = test system: RPMI-8226
# RXF 393 = test system: RXF 393
# SK-MEL-2 = test system: SK-MEL-2
# SK-MEL-5 = test system: SK-MEL-5
# SN12C = test system: SN12C
# SR = test system: SR
# T47D = test system: T47D
compound,measurement,setting,value
Oc1ccccc1-c1nnc(S)n1/N=C/c1ccc(-c2ccc(Br)cc2)o1,GI50,786-0,39.2 µM (inactive)
same,GI50,A549,48.1 µM (inactive)
same,GI50,ACHN,29.6 µM (inactive)
same,GI50,COLO 205,39.6 µM (inactive)
same,GI50,DLD-1,34 µM (inactive)
same,GI50,HCT-116,33.7 µM (inactive)
same,GI50,HOP-62,29.9 µM (inactive)
same,GI50,HOP-92,18.4 µM (inactive)
same,GI50,HT-29,51.3 µM (inactive)
same,GI50,IGROV-1,29.2 µM (inactive)
same,GI50,K562,32.1 µM (inactive)
same,GI50,KM-20L2,35.5 µM (inactive)
same,GI50,KM12,34.7 µM (inactive)
same,GI50,LOX IMVI,23.7 µM (inactive)
same,GI50,LXFL 529,22 µM (inactive)
same,GI50,M14,41.7 µM (inactive)
same,GI50,M19-MEL,42.5 µM (inactive)
same,GI50,MOLT-4,25.4 µM (inactive)
same,GI50,NCI-H226,22.9 µM (inactive)
same,GI50,NCI-H23,20.5 µM (inactive)
same,GI50,NCI-H460,95.9 µM (inactive)
same,GI50,NCI-H522,60.4 µM (inactive)
same,GI50,OVCAR-3,24.2 µM (inactive)
same,GI50,OVCAR-4,15.6 µM (inactive)
same,GI50,OVCAR-5,> 100 µM (inactive)
same,GI50,OVCAR-8,34 µM (inactive)
same,GI50,SF-268,40.3 µM (inactive)
same,GI50,SF-295,60.4 µM (inactive)
same,GI50,SF-539,33 µM (inactive)
same,GI50,SK-MEL-28,56.5 µM (inactive)
same,GI50,SK-OV-3,31 µM (inactive)
same,GI50,SNB-19,24.4 µM (inactive)
same,GI50,SNB-75,32.7 µM (inactive)
same,GI50,SNB-78,23.6 µM (inactive)
same,GI50,SW-620,38.6 µM (inactive)
same,GI50,TK-10,15.2 µM (inactive)
same,GI50,U-251,25.9 µM (inactive)
same,GI50,UACC-257,24.3 µM (inactive)
same,GI50,UACC-62,13.1 µM (inactive)
same,GI50,UO-31,28 µM (inactive)
COc1cc(C2c3cc4c(cc3OC(NNS(=O)(=O)c3ccc(C)cc3)C2C)OCO4)cc(OC)c1OC (stereo not drawn),GI50,786-0,7.76 µM (inactive)
same,GI50,A498,1.26 µM (inactive)
same,GI50,A549,2.6 µM (inactive)
same,GI50,ACHN,3 µM (inactive)
same,GI50,BT-549,3.32 µM (inactive)
same,GI50,CAKI-1,1.68 µM (inactive)
same,GI50,CCRF-CEM,1.01 µM (active)
same,GI50,COLO 205,2.81 µM (inactive)
same,GI50,DU-145,3.83 µM (inactive)
same,GI50,EKVX,2.05 µM (inactive)
same,GI50,HCC 2998,2.94 µM (inactive)
same,GI50,HCT-116,1.29 µM (inactive)
same,GI50,HCT-15,1.29 µM
same,GI50,HL-60,0.5 µM (active)
same,GI50,HOP-62,0.817 µM (active)
same,GI50,HOP-92,2 µM (inactive)
same,GI50,HT-29,1.34 µM (inactive)
same,GI50,Hs-578T,1.26 µM (inactive)
same,GI50,IGROV-1,2.68 µM (inactive)
same,GI50,K562,0.55 µM (active)
same,GI50,KM12,1.26 µM (inactive)
same,GI50,LOX IMVI,1.87 µM (inactive)
same,GI50,M14,0.776 µM (active)
same,GI50,MCF7,1.48 µM (inactive)
same,GI50,MDA-MB-231,4.24 µM (inactive)
same,GI50,MDA-MB-435,0.294 µM (active)
same,GI50,MDA-N,0.289 µM (active)
same,GI50,MOLT-4,1.89 µM (inactive)
same,GI50,Malme-3M,3.04 µM (inactive)
same,GI50,NCI-H226,3.14 µM (inactive)
same,GI50,NCI-H23,4.8 µM (inactive)
same,GI50,NCI-H460,2.13 µM (inactive)
same,GI50,NCI-H522,1.25 µM (inactive)
same,GI50,NCI/ADR-RES,3.24 µM (inactive)
same,GI50,OVCAR-3,1.26 µM (inactive)
same,GI50,OVCAR-4,7.59 µM (inactive)
same,GI50,OVCAR-5,9.14 µM (inactive)
same,GI50,OVCAR-8,8.91 µM (inactive)
same,GI50,PC-3,1.28 µM (inactive)
same,GI50,RPMI-8226,2.08 µM (inactive)
same,GI50,RXF 393,1.76 µM (inactive)
same,GI50,SF-268,3.95 µM (inactive)
same,GI50,SF-295,0.989 µM (active)
same,GI50,SF-539,0.984 µM (active)
same,GI50,SK-MEL-28,2.94 µM (inactive)
same,GI50,SK-MEL-2,0.984 µM (active)
same,GI50,SK-MEL-5,0.883 µM (active)
same,GI50,SK-OV-3,4.13 µM (inactive)
same,GI50,SN12C,4.21 µM (inactive)
same,GI50,SNB-19,3.58 µM (inactive)
same,GI50,SNB-75,3.02 µM (inactive)
same,GI50,SR,0.839 µM (active)
same,GI50,SW-620,1.01 µM (active)
same,GI50,T47D,3.48 µM (inactive)
same,GI50,TK-10,6.7 µM (inactive)
same,GI50,U-251,2.14 µM (inactive)
same,GI50,UACC-257,3.21 µM (inactive)
same,GI50,UACC-62,1.36 µM (inactive)
same,GI50,UO-31,5.14 µM (inactive)
COc1ccc2cc(C(=O)NCCCNC(=O)c3ccc4cc(OC)ccc4c3)ccc2c1,GI50,786-0,19.6 µM (inactive)
same,GI50,A498,44.8 µM (inactive)
same,GI50,A549,> 100 µM (inactive)
same,GI50,ACHN,33.7 µM (inactive)
same,GI50,BT-549,> 64.7 µM (inactive)
same,GI50,CAKI-1,> 82.4 µM (inactive)
same,GI50,CCRF-CEM,> 100 µM (inactive)
same,GI50,COLO 205,> 100 µM (inactive)
same,GI50,DU-145,> 100 µM (inactive)
same,GI50,EKVX,49.8 µM (inactive)
same,GI50,HCC 2998,> 100 µM (inactive)
same,GI50,HCT-116,> 86.7 µM (inactive)
same,GI50,HCT-15,> 100 µM
same,GI50,HL-60,> 100 µM (inactive)
same,GI50,HOP-62,14.7 µM (inactive)
same,GI50,HOP-92,14.7 µM (inactive)
same,GI50,HT-29,> 100 µM (inactive)
same,GI50,Hs-578T,34.2 µM (inactive)
same,GI50,IGROV-1,39.4 µM (inactive)
same,GI50,K562,> 100 µM (inactive)
same,GI50,KM12,> 100 µM (inactive)
same,GI50,LOX IMVI,> 100 µM (inactive)
same,GI50,M14,> 100 µM (inactive)
same,GI50,MCF7,> 100 µM (inactive)
same,GI50,MDA-MB-231,21.1 µM (inactive)
same,GI50,MDA-MB-435,> 100 µM (inactive)
same,GI50,MDA-N,> 100 µM (inactive)
same,GI50,MOLT-4,> 100 µM (inactive)
same,GI50,Malme-3M,> 100 µM (inactive)
same,GI50,NCI-H226,49.4 µM (inactive)
same,GI50,NCI-H23,> 100 µM (inactive)
same,GI50,NCI-H460,> 64.9 µM (inactive)
same,GI50,NCI-H522,> 100 µM (inactive)
same,GI50,NCI/ADR-RES,> 61.5 µM (inactive)
same,GI50,OVCAR-3,> 100 µM (inactive)
same,GI50,OVCAR-4,61 µM (inactive)
same,GI50,OVCAR-5,> 100 µM (inactive)
same,GI50,OVCAR-8,22.6 µM (inactive)
same,GI50,PC-3,> 100 µM (inactive)
same,GI50,RPMI-8226,> 100 µM (inactive)
same,GI50,RXF 393,15.8 µM (inactive)
same,GI50,SF-268,23.9 µM (inactive)
same,GI50,SF-295,22.4 µM (inactive)
same,GI50,SF-539,3.94 µM (inactive)
same,GI50,SK-MEL-28,> 100 µM (inactive)
same,GI50,SK-MEL-2,> 75.3 µM (inactive)
same,GI50,SK-MEL-5,> 100 µM (inactive)
same,GI50,SK-OV-3,31.5 µM (inactive)
same,GI50,SN12C,> 49.9 µM (inactive)
same,GI50,SNB-19,17.2 µM (inactive)
same,GI50,SNB-75,17.8 µM (inactive)
same,GI50,SR,> 100 µM (inactive)
same,GI50,SW-620,> 100 µM (inactive)
same,GI50,T47D,> 75.7 µM (inactive)
same,GI50,TK-10,45.4 µM (inactive)
same,GI50,U-251,21.1 µM (inactive)
same,GI50,UACC-257,> 96.2 µM (inactive)
same,GI50,UACC-62,> 100 µM (inactive)
same,GI50,UO-31,> 75.7 µM (inactive)
